Reference: ChEMBL document CHEMBL3817730, “Design, synthesis and antimetastatic evaluation of 1-benzothiazolylphenylbenzotriazoles for photodynamic therapy in oral cancer cells” (Medchemcomm, 2016)
Activity calls are given as the source filed them. The calls are words filed in the database; no cut-off is given here.

Key:
[1] = Cytotoxicity against human Ca9-22 cells assessed as cell survival at 5 uM preincubated for 4 hrs followed by 1 Jcm'-2 UVA irradiation measured after 24 hrs by MTT assay relative to control; format: cell-based; conditions: read-out: Survival
Ca9-22 [2] = assay: Inhibition of phosphorylated ERK level in human Ca9-22 cells at 2 uM preincubated for 2 hrs followed by 0.5 Jcm'-2 UVA irradiation by Western blot analysis; format: cell-based
Ca9-22 [3] = assay: Increase in TIMP3 expression in human Ca9-22 cells at 2 uM preincubated for 2 hrs followed by 0.5 Jcm'-2 UVA irradiation by Western blot analysis; format: functional, cell-based
[4] = biological target: T1, Epidermal growth factor receptor (Homo sapiens) (UniProt P04626+P00533+Q15303+P21860); assay: Inhibition of EGFR/ERK signalling in human Ca9-22 cells assessed as reduction in MMP2 expression at 2 uM preincubated for 2 hrs followed by 0.5 Jcm'-2 UVA irradiation by Western blot analysis; format: cell-based
[5] = biological target: Epidermal growth factor receptor (Homo sapiens) (UniProt P00533); assay: Inhibition of phosphorylated EGFR level in human Ca9-22 cells at 2 uM preincubated for 2 hrs followed by 0.5 Jcm'-2 UVA irradiation by Western blot analysis; format: cell-based
Ca9-22 [6] = assay: Antiinvasive activity against human Ca9-22 cells assessed as cell invasion at 2 uM preincubated for 2 hrs followed by 0.5 Jcm'-2 UVA irradiation measured after 22 hrs by boyden chamber assay relative to control; format: functional
Ca9-22 [7] = assay: Anti-metastatic activity against human Ca9-22 cells assessed as inhibition of cell migration at 2 uM preincubated for 2 hrs followed by 0.5 Jcm'-2 UVA irradiation measured after 16 hrs by wound healing assay relative to control; format: functional; conditions: Ca9-22, light or radiation study
[8] = biological target: T1, Epidermal growth factor receptor (Homo sapiens); assay: Inhibition of EGFR/ERK signalling in human Ca9-22 cells assessed as reduction in MMP9 expression at 2 uM preincubated for 2 hrs followed by 0.5 Jcm'-2 UVA irradiation by Western blot analysis; format: cell-based
Ca9-22 [9] = assay: Anti-metastatic activity against human Ca9-22 cells assessed as increase in syndecan-1 mRNA expression at 2 uM preincubated for 2 hrs followed by 0.5 Jcm'-2 UVA irradiation measured after 8 hrs by qRT-PCR method; format: functional, cell-based
[10] = biological target: T1, Epidermal growth factor receptor (Homo sapiens); assay: Inhibition of EGFR/ERK signalling in human Ca9-22 cells assessed as reduction in MMP9 mRNA expression at 2 uM preincubated for 2 hrs followed by 0.5 Jcm'-2 UVA irradiation measured after 8 hrs by qRT-PCR method; format: cell-based
Ca9-22 [11] = assay: Anti-metastatic activity against human Ca9-22 cells assessed as reduction in heparanase mRNA expression at 2 uM preincubated for 2 hrs followed by 0.5 Jcm'-2 UVA irradiation measured after 8 hrs by qRT-PCR method; format: functional, cell-based
[12] = Cytotoxicity against human Ca9-22 cells assessed as inhibition of cell survival at 2 uM preincubated for 2 hrs followed by 0.5 Jcm'-2 UVA irradiation measured after 24 hrs by MTT assay relative to control; format: cell-based; conditions: read-out: INH
[13] = biological target: T1, Epidermal growth factor receptor (Homo sapiens); assay: Inhibition of EGFR/ERK signalling in human Ca9-22 cells assessed as reduction in MMP2 mRNA expression at 2 uM preincubated for 2 hrs followed by 0.5 Jcm'-2 UVA irradiation measured after 8 hrs by qRT-PCR method; format: cell-based
Ca9-22 [14] = assay: Anti-metastatic activity against human Ca9-22 cells assessed as increase in TIMP3 mRNA expression at 2 uM preincubated for 2 hrs followed by 0.5 Jcm'-2 UVA irradiation measured after 8 hrs by qRT-PCR method; format: functional, cell-based

Chain of Epidermal growth factor receptor (Homo sapiens) (UniProt P00533) (P00533 whole entry): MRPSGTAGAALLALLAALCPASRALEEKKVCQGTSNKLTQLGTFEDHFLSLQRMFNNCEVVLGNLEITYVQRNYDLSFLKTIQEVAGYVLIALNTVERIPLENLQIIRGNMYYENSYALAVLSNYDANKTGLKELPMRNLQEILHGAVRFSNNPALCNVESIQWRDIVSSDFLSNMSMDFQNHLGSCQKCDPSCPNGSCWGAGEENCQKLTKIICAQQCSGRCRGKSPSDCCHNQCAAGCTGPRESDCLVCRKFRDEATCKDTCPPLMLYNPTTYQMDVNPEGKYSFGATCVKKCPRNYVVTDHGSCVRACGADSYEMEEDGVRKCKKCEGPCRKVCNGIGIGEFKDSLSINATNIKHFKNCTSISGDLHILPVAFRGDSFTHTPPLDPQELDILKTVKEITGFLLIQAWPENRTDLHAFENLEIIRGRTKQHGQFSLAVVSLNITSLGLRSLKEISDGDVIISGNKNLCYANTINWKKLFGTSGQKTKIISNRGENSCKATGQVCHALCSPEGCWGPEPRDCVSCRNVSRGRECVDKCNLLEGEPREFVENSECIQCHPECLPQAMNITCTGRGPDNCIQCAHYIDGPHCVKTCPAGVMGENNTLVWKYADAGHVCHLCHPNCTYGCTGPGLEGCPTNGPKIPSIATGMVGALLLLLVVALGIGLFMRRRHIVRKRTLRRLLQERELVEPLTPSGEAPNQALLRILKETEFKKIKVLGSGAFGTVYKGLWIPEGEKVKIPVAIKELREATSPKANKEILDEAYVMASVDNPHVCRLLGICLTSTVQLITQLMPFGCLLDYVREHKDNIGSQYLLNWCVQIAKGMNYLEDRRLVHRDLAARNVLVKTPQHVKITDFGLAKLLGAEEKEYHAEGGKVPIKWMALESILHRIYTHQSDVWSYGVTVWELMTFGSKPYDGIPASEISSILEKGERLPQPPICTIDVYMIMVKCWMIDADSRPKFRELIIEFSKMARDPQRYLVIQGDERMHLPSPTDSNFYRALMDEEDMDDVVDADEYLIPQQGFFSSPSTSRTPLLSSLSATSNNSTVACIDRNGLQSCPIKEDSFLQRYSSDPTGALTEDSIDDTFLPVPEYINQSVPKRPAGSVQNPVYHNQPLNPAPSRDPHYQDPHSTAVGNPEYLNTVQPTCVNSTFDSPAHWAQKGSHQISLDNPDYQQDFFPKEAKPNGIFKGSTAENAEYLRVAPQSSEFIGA

Structure (SMILES)	viability at 24 h, 5 µM [1] [%]	Activity (Ca9-22 [6]) [%]	inhibition at 2 µM (Ca9-22 [7]) [%]	other results
Cc1cc(-c2nc3ccccc3s2)ccc1-n1nnc2ccccc21	48.6	47.6	45.8	inhibition (Ca9-22 [2]): Active; Activity (Ca9-22 [3]): Active; inhibition [4]: Active; inhibition [5]: Active; inhibition [8]: Active
COc1ccc2c(c1)nnn2-c1ccc(-c2nc3ccccc3s2)cc1C	79.6	75.9	18.5	
FC(F)(F)c1ccc2nc(-c3ccc(-n4nnc5ccccc54)cc3)sc2c1	91.8			
COc1ccc2c(c1)nnn2-c1ccc(-c2nc3ccc(OC)cc3s2)cc1	81.1	108.6	51.7	
COc1ccc2c(c1)nnn2-c1ccc(-c2nc3ccc(C(F)(F)F)cc3s2)cc1C	113			
CCc1ccc2nc(-c3ccc(-n4nnc5ccccc54)cc3)sc2c1	109			
COc1ccc2nc(-c3ccc(-n4nnc5ccccc54)cc3)sc2c1	44.1	38.9	68.7	inhibition (Ca9-22 [2]): Active; Activity (Ca9-22 [9]): Active; inhibition [10]: Active; Activity (Ca9-22 [3]): Active; Activity (Ca9-22 [11]): Active; inhibition [4]: Active; cytotoxicity at 24 h, 2 µM [12]: 20%; inhibition [5]: Active; inhibition [13]: Active; Activity (Ca9-22 [14]): Active; inhibition [8]: Active
COc1ccc2nc(-c3ccc(-n4nnc5ccccc54)c(C)c3)sc2c1	82.1			
COc1ccc2c(c1)nnn2-c1ccc(-c2nc3ccccc3s2)cc1	104			
CCc1ccc2nc(-c3ccc(-n4nnc5ccccc54)c(C)c3)sc2c1	50.2	47	70.1	inhibition (Ca9-22 [2]): Active; Activity (Ca9-22 [3]): Active; inhibition [4]: Active; inhibition [5]: Active; inhibition [8]: Active
CCc1ccc2nc(-c3ccc(-n4nnc5cc(OC)ccc54)c(C)c3)sc2c1	73.1	70	31.1	
CCc1ccc2nc(-c3ccc(-n4nnc5cc(OC)ccc54)cc3)sc2c1	114			
Cc1cc(-c2nc3ccc(C(F)(F)F)cc3s2)ccc1-n1nnc2ccccc21	89.4			
COc1ccc2c(c1)nnn2-c1ccc(-c2nc3ccc(OC)cc3s2)cc1C	63.3			
COc1ccc2c(c1)nnn2-c1ccc(-c2nc3ccc(C(F)(F)F)cc3s2)cc1	105			
c1ccc2sc(-c3ccc(-n4nnc5ccccc54)cc3)nc2c1	95.5			
